Laboratory results reported in ChEMBL document CHEMBL5131433, “Novel benzothiazole-based dual VEGFR-2/EGFR inhibitors targeting breast and liver cancers: Synthesis, cytotoxic activity, QSAR and molecular docking studies” (Bioorg Med Chem Lett, 2022).

Tests used:
[1] = tested on: MCF7; assay: cells; settings: Homo sapiens, MCF7, 72 h
Description: Anticancer activity against human MCF7 cells assessed as inhibition of cell growth incubated for 3 days by MTT assay

[2] = tested on: HepG2; assay: cells; settings: Homo sapiens, HepG2, 72 h
Description: Anticancer activity against human HepG2 cells assessed as inhibition of cell growth incubated for 3 days by MTT assay

[3] = tested on: MDA-MB-231; assay: Anticancer activity against human MDA-MB-231 cells assessed as inhibition of cell growth incubated for 3 days by MTT assay; format: functional, cell-based; settings: MDA-MB-231, 72 h
[4] = Cytotoxicity against human WI-38 cells assessed as inhibition of cell growth incubated for 3 days by MTT assay; format: toxicity, cell-based
[5] = target: Vascular endothelial growth factor receptor 2 (Homo sapiens, UniProt P35968); assay: Inhibition of VEGFR2 (unknown origin)
Chain of Vascular endothelial growth factor receptor 2 (P35968 whole entry): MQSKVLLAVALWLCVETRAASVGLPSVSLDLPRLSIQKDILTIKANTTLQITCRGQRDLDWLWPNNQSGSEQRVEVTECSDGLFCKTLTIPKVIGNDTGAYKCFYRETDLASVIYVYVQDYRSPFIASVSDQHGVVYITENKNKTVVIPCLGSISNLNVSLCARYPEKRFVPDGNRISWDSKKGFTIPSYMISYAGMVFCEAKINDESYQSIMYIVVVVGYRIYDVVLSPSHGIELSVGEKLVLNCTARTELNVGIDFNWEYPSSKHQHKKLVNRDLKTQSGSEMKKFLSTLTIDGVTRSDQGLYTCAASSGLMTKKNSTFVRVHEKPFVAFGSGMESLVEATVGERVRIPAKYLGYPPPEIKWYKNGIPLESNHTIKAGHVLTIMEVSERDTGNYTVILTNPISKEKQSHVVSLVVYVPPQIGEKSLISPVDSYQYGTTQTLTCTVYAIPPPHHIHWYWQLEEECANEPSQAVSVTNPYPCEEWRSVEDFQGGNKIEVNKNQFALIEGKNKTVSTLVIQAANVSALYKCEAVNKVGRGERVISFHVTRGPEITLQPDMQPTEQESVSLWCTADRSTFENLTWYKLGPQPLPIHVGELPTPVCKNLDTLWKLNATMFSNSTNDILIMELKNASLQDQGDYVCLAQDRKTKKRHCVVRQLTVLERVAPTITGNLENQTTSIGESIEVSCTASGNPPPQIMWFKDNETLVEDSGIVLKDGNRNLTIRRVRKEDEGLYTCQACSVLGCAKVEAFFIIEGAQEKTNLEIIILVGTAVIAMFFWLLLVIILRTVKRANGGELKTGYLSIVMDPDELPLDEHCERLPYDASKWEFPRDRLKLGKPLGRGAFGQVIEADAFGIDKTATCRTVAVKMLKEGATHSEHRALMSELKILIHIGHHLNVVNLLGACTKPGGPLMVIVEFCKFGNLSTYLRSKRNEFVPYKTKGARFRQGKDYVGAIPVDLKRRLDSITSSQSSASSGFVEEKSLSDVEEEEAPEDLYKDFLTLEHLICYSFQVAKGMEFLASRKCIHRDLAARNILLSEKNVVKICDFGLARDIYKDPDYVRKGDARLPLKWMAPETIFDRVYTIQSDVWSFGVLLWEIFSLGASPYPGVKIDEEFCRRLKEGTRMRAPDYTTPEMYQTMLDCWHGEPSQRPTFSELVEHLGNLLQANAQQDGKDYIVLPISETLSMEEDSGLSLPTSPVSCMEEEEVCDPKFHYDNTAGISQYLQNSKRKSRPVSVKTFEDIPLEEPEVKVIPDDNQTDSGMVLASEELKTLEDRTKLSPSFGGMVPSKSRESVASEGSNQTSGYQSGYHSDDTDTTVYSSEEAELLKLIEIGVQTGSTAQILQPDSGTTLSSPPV

[6] = target: Epidermal growth factor receptor (Homo sapiens, UniProt P00533); assay: Inhibition of EGFR (unknown origin)
Chain of Epidermal growth factor receptor (P00533 whole entry): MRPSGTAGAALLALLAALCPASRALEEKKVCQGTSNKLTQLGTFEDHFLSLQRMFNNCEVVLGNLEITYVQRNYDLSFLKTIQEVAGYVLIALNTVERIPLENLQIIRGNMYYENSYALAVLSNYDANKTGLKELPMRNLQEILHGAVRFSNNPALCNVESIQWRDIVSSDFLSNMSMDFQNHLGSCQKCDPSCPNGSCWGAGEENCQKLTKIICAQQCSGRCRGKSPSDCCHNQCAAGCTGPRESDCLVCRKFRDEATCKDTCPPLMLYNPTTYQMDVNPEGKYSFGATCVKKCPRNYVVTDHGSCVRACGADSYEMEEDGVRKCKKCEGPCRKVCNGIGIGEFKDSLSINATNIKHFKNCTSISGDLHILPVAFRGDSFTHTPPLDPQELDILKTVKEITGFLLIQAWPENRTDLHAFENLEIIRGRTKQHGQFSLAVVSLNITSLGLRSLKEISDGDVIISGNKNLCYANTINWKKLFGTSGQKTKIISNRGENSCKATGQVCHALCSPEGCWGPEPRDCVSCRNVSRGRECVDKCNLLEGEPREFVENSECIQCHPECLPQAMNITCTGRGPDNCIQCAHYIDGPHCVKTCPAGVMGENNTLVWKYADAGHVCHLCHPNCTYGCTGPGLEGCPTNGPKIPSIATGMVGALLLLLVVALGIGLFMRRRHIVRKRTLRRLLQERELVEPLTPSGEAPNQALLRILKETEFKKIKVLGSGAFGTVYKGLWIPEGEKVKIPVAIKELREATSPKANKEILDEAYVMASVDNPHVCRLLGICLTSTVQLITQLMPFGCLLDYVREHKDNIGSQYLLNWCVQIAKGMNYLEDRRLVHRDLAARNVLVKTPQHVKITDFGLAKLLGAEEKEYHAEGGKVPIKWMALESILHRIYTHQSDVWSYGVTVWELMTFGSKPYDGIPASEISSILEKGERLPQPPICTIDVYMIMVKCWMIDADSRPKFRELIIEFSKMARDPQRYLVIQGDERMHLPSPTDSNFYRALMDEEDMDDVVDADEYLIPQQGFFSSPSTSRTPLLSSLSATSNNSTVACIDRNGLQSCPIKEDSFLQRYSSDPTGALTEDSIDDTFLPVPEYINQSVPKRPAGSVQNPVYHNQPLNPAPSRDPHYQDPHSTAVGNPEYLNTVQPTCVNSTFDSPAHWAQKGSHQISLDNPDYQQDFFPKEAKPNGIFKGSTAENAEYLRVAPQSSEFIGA

| IC50 [1] [µM] | IC50 [2] [µM] | IC50 [3] [µM] | IC50 [5] [µM] | IC50 [6] [µM] | Compound | IC50 at 3 days [4] [µM] |
| --- | --- | --- | --- | --- | --- | --- |
| 1.98 | 3.18 | – | – | – | CCOC(=O)CN(C)CC(=O)NNC(=O)COc1ccc(-c2nc3ccccc3s2)cc1OC | – |
| 0.84 | 2.65 | 8.88 | 0.188 | 0.342 | COc1cc(-c2nc3ccccc3s2)ccc1OCC(=O)NNC(=O)CN1CCC[C@H]1C(=O)O | 68.6 |
| 2.9 | 3.97 | – | – | – | CCOC(=O)[C@H](NCC(=O)NNC(=O)COc1ccc(-c2nc3ccccc3s2)cc1OC)[C@@H](C)CC | – |
| 1.99 | 3.36 | – | – | – | CCOC(=O)[C@H](CS(=O)(=O)O)NCC(=O)NNC(=O)COc1ccc(-c2nc3ccccc3s2)cc1OC | – |
| 1.75 | 3.42 | – | – | – | COc1cc(-c2nc3ccccc3s2)ccc1OCC(=O)NNC(=O)CN(C(C)=O)[C@@H](CS)C(=O)O | – |
| 1.89 | 3.01 | – | – | – | CCOC(=O)[C@H](CS)N(CC(=O)NNC(=O)COc1ccc(-c2nc3ccccc3s2)cc1OC)C(C)=O | – |
| 1.95 | 3.46 | – | – | – | CCOC(=O)[C@@H](NCC(=O)NNC(=O)COc1ccc(-c2nc3ccccc3s2)cc1OC)[C@@H](C)CC | – |
| 1.76 | 3.33 | – | – | – | CCOC(=O)[C@H](CCSC)NCC(=O)NNC(=O)COc1ccc(-c2nc3ccccc3s2)cc1OC | – |
| 1.23 | 3.12 | – | – | – | COc1cc(-c2nc3ccccc3s2)ccc1OCC(=O)NNC(=O)CN[C@@H](CS)C(=O)O | – |
| 0.73 | 2.54 | 5.45 | 0.178 | 0.114 | CCOC(=O)[C@H](Cc1c[nH]c2ccccc12)NCC(=O)NNC(=O)COc1ccc(-c2nc3ccccc3s2)cc1OC | 92.7 |
| 1.71 | 3.54 | – | – | – | CC[C@H](C)[C@H](NCC(=O)NNC(=O)COc1ccc(-c2nc3ccccc3s2)cc1OC)C(=O)O | – |
| 1.95 | 3.78 | – | – | – | COc1cc(-c2nc3ccccc3s2)ccc1OCC(=O)NNC(=O)CN[C@@H](CCSC)C(=O)O | – |
| 1.79 | 3.99 | – | – | – | CC[C@H](C)[C@@H](NCC(=O)NNC(=O)COc1ccc(-c2nc3ccccc3s2)cc1OC)C(=O)O | – |
| 1.96 | 3.03 | – | – | – | COc1cc(-c2nc3ccccc3s2)ccc1OCC(=O)NNC(O)CN(C)CC(=O)O (stereo not drawn) | – |
| 2.88 | 3.76 | – | – | – | CCOC(=O)[C@H](CS)NCC(=O)NNC(=O)COc1ccc(-c2nc3ccccc3s2)cc1OC | – |
| 1.87 | 3.69 | – | – | – | COc1cc(-c2nc3ccccc3s2)ccc1OCC(=O)NNC(=O)CN[C@@H](CS(=O)(=O)O)C(=O)O | – |
| 0.77 | 2.8 | 7.28 | 0.163 | 0.109 | CCOC(=O)[C@@H]1CCCN1CC(=O)NNC(=O)COc1ccc(-c2nc3ccccc3s2)cc1OC | 75.1 |
| 0.74 | 2.68 | 5.67 | 0.152 | 0.157 | CCOC(=O)[C@H](Cc1c[nH]cn1)NCC(=O)NNC(=O)COc1ccc(-c2nc3ccccc3s2)cc1OC | 89.4 |
| 0.83 | 2.58 | 10.5 | 0.162 | 0.209 | COc1cc(-c2nc3ccccc3s2)ccc1OCC(=O)NNC(=O)CN[C@@H](Cc1c[nH]c2ccccc12)C(=O)O | 60.8 |
| 0.89 | 2.8 | 11 | 0.171 | 0.305 | COc1cc(-c2nc3ccccc3s2)ccc1OCC(=O)NNC(=O)CN[C@@H](Cc1c[nH]cn1)C(=O)O | 49.5 |
| 0.78 | 2.89 | – | – | – | COc1cc(-c2nc3ccccc3s2)ccc1OCC(=O)NNC(=O)CCl | – |

| Compound | IC50 [1] [µM] | IC50 [2] [µM] | IC50 [3] [µM] | IC50 [5] [µM] | IC50 [6] [µM] | IC50 at 3 days [4] [µM] |
| --- | --- | --- | --- | --- | --- | --- |
| COc1cccc2c1C(=O)c1c(O)c3c(c(O)c1C2=O)C[C@@](O)(C(=O)CO)C[C@@H]3O[C@H]1C[C@H](N)[C@H](O)[C@H](C)O1 [DOXORUBICIN] | – | 2.75 | 7.46 | – | – | 79.7 |
| COc1cc(-c2nc3ccccc3s2)ccc1OCC(=O)NNC(=O)CNC(=N)NCCC[C@H](N[N+](=O)[O-])C(=O)O | 1.96 | 3.49 | – | – | – | – |
| CCOC(=O)[C@H](CCCNC(=N)NCC(=O)NNC(=O)COc1ccc(-c2nc3ccccc3s2)cc1OC)N[N+](=O)[O-] | 1.95 | 3.73 | – | – | – | – |
